Patent US20240398784A1, “C-LINKED ISOQUINOLINE AMIDES AS LRRK2 INHIBITORS, PHARMACEUTICAL COMPOSITIONS, AND USES THEREOF” (Merck Sharp & Dohme LLC, priority 2021, published 2024)

Molecular target: LRRK2 G2019S (Homo sapiens, UniProt Q5S007, G2019S)
Assay: LRRK2 G2019S Km ATP LanthaScreen assay
Assay type: biochemical
Conditions: read-out: LRRK2 pIC50 (converted)

Sequence of LRRK2 G2019S (Q5S007 whole entry G2019S): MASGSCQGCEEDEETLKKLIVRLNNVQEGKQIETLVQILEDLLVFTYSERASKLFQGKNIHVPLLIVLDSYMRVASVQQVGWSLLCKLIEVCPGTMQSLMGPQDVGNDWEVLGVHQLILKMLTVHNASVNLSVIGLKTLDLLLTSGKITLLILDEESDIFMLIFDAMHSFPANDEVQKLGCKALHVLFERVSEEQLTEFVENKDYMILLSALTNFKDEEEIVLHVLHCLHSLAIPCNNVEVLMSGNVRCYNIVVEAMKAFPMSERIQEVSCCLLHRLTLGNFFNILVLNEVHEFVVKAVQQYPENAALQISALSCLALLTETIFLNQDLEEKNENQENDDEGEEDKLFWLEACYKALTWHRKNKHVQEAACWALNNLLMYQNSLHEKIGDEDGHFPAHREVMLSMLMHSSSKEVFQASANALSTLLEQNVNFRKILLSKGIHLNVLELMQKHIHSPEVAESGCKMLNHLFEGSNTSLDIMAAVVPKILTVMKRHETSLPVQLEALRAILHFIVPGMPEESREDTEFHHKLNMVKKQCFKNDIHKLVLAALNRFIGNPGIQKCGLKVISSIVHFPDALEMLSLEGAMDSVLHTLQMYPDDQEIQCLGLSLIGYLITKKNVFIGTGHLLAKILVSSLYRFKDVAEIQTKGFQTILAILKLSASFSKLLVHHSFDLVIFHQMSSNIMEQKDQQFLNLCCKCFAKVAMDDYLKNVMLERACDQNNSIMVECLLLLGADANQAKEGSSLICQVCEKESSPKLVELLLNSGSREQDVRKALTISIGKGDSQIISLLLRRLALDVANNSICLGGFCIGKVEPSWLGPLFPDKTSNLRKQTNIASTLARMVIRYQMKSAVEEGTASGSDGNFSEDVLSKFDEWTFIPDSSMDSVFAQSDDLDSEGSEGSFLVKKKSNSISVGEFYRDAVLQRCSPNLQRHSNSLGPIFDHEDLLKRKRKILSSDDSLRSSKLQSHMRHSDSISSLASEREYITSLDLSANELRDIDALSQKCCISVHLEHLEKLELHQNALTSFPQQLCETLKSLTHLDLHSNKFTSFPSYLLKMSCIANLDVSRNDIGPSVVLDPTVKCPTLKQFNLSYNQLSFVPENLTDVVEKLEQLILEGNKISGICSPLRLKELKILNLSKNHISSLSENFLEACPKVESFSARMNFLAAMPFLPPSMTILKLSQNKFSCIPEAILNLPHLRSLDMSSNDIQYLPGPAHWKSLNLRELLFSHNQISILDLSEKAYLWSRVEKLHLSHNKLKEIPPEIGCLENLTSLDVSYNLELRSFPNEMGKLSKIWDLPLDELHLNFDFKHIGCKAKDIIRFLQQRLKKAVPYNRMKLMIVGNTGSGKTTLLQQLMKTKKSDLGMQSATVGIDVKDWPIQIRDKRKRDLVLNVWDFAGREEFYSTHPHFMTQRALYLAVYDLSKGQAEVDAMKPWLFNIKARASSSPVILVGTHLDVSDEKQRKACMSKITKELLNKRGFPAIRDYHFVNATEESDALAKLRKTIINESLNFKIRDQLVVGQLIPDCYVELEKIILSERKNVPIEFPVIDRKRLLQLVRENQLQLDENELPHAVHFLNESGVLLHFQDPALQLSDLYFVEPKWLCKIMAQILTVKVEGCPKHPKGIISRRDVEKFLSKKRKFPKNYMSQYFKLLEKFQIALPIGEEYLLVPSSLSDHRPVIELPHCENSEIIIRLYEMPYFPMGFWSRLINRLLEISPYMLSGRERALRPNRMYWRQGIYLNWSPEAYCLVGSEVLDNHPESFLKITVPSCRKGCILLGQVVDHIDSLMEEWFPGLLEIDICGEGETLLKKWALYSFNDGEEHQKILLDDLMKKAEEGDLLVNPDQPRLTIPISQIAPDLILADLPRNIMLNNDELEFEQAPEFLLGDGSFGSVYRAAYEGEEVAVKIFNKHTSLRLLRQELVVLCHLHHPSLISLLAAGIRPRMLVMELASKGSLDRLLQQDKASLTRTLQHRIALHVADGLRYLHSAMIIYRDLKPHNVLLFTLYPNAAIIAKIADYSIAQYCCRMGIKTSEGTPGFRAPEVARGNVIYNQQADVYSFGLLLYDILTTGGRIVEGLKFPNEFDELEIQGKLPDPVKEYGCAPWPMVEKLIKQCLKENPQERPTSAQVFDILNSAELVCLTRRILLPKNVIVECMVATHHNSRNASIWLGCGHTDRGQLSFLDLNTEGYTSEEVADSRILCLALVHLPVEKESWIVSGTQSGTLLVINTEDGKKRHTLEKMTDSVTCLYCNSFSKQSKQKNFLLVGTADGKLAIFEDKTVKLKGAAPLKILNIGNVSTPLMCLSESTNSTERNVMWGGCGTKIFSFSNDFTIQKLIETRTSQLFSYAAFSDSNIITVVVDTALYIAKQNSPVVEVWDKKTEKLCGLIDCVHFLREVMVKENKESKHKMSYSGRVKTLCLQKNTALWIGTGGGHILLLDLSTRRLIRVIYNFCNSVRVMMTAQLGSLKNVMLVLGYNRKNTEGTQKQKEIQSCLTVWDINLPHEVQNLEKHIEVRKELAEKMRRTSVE

Work on `CN1CCOC(CC(=O)Nc2cc3cc(C4(C#N)CC45CC5)ccc3cn2)C1` (single isomer, unassigned) [Ex-1.47, (R or S)-N-(6-(1-cyanospiro[2.2]pentan-1-yl)isoquinolin-3-yl)-2-(4-methylmorpholin-2-yl)acetamide] yielded an IC50 of 20 nM.

For `CC1(C)CCC(C(=O)Nc2cc3cc(C4CCC(N5CCC(F)C5)CC4)c(Cl)cc3cn2)CO1` (single isomer, unassigned) [Ex-5.22, N-(7-chloro-6-(4-(3-fluoropyrrolidin-1-yl)cyclohexyl)isoquinolin-3-yl)-6,6-dimethyltetrahydro-2H-pyran-3-carboxamide], the IC50 was 6.17 nM.

`CC1(N2CCC(c3cc4cc(NC(=O)C5C6CCCOC65)ncc4cc3Cl)CC2)COCC1O` (single isomer, unassigned) [Ex-4.11, N-(7-chloro-6-(1-(4-hydroxy-3-methyltetrahydrofuran-3-yl)piperidin-4-yl)isoquinolin-3-yl)-2-oxabicyclo[4.1.0]heptane-7-carboxamide] was tested, and the IC50 was 0.363 nM.

For `CC(=O)Nc1cc2cc(C3CCN(C4COC4)CC3)c(Cl)cc2cn1` [Ex-7.1, N-(7-chloro-6-(1-(oxetan-3-yl)piperidin-4-yl)isoquinolin-3-yl)acetamide], the IC50 was 11.5 nM.

In the case of `CC1(N2CCC(c3cc4cc(NC(=O)C5CC56CCC(F)(F)CC6)ncc4cc3Cl)CC2)COCC1O` (stereo not shown) [Ex-2.17], the IC50 is reported as 4.27 nM.

`CCC(=O)N1CC(C(=O)Nc2cc3cc(C4(C#N)CC45CC5)ccc3cn2)C1` (single isomer, unassigned) [Ex-19.1, (R or S)-N-(6-(1-cyanospiro[2.2]pentan-1-yl)isoquinolin-3-yl)-1-propionylazetidine-3-carboxamide] was tested, and the IC50 was 10.7 nM.

Work on `CCC1C(C(=O)Nc2cc3cc(C4CC(C#N)C4)c(Cl)cc3cn2)C1c1cnn(C)c1` (stereo not shown) [Ex-9.17, N-(7-chloro-6-(3-cyanocyclobutyl)isoquinolin-3-yl)-2-ethyl-3-(1-methyl-1H-pyrazol-4-yl)cyclopropane-1-carboxamide] yielded an IC50 of 33.1 nM.

`O=C(Nc1cc2cc(C3CCN(C4COC4)CC3)c(Cl)cc2cn1)C1CC(OC(F)F)C1` (single isomer, unassigned) [Ex-2.4] showed an IC50 of 14.1 nM.

`O=C(Nc1cc2cc(C3CCN(C4COCC4O)CC3)c(Cl)cc2cn1)C1CC1` (single isomer, unassigned) [Ex-12.3, N-(7-chloro-6-(1-(4-hydroxytetrahydrofuran-3-yl)piperidin-4-yl)isoquinolin-3-yl)cyclopropanecarboxamide] gave an IC50 of 1.17 nM.

`CCC(=O)N1CCC(C(C)C(=O)Nc2cc3cc(C4(C#N)CC45CC5)ccc3cn2)CC1` (stereo not shown) [Ex-2.113] was tested, and the IC50 was 28.2 nM.

For `CC(C)OC1CCC(C(=O)Nc2cc3cc(C4(C#N)CC45CC5)ccc3cn2)OC1` (single isomer, unassigned) [Ex-1.28, N-(6-((R or S)-1-cyanospiro[2.2]pentan-1-yl)isoquinolin-3-yl)-5R or 5S-isopropoxytetrahydro-2H-pyran-2R-carboxamide], the IC50 was 24 nM.

In the case of `Cn1cc(C2CC2C(=O)Nc2cc3cc(C4(C#N)CC45CC5)ccc3cn2)cn1` (single isomer, unassigned) [Ex-1.24, (1R,2R or 1S,2S)-N-(6-((R or S)-1-cyanospiro[2.2]pentan-1-yl)isoquinolin-3-yl)-2-(1-methyl-1H-pyrazol-4-yl)cyclopropane-1-carboxamide], the IC50 is reported as 0.0813 nM.

Work on `N#CC1(c2ccc3cnc(NC(=O)C4CC4c4ccncc4)cc3c2)CC12CC2` (stereo not shown) [Ex-2.42] yielded an IC50 of 2.34 nM.

Molecule `CC1(C)CCC(C(=O)Nc2cc3cc(C4CCC(N5CCC(F)C5)CC4)c(Cl)cc3cn2)CO1` (single isomer, unassigned) [Ex-5.19, N-(7-chloro-6-(4-(3-fluoropyrrolidin-1-yl)cyclohexyl)isoquinolin-3-yl)-6,6-dimethyltetrahydro-2H-pyran-3-carboxamide] has an IC50 of 2.34 nM.

In the case of `CC1(N2CCC(c3cc4cc(NC(=O)C5C6CCOCC65)ncc4cc3Cl)CC2)COCC1F` (single isomer, unassigned) [Ex-6.41, N-(7-chloro-6-(1-(4-fluoro-3-methyltetrahydrofuran-3-yl)piperidin-4-yl)isoquinolin-3-yl)-3-oxabicyclo[4.1.0]heptane-7-carboxamide], the IC50 is reported as 0.0813 nM.

With `N#CC1(c2ccc3cnc(NC(=O)C4CC4c4ccccn4)cc3c2)CC12CC2` (stereo not shown) [Ex-2.39] the IC50 was 2.29 nM.

With `N#CC1(c2ccc3cnc(NC(=O)C4CC(OC(F)F)C4)cc3c2)CC12CC2` (single isomer, unassigned) [Ex-2.5] the IC50 was 9.77 nM.

Work on `Cc1ccc(C2CC2C(=O)Nc2cc3cc(C4CCN(C5(C)COCC5O)CC4)c(Cl)cc3cn2)s1` (single isomer, unassigned) [Ex-4.57, N-(7-chloro-6-(1-(4-hydroxy-3-methyltetrahydrofuran-3-yl)piperidin-4-yl)isoquinolin-3-yl)-2-(5-methylthiophen-2-yl)cyclopropane-1-carboxamide] yielded an IC50 of 41.7 nM.

In the case of `O=C(Nc1cc2cc(C3CCN(C4COC4)CC3)c(Cl)cc2cn1)[C@H]1C[C@@H]1F` (single isomer, unassigned) [Ex-1.7, (1R,3S or 1S,3R)-N-(7-chloro-6-(1-(oxetan-3-yl)piperidin-4-yl)isoquinolin-3-yl)-2-fluorocyclopropane-1-carboxamide], the IC50 is reported as 1.12 nM.

`CC1(N2CCC(c3cc4cc(NC(=O)[C@@H]5CCCCO5)ncc4cc3Cl)CC2)COCC1O` (single isomer, unassigned) [Ex-1.17, (S)-N-(7-chloro-6-(1-((3R,4R or 3S,4S)-4-hydroxy-3-methyltetrahydrofuran-3-yl)piperidin-4-yl)isoquinolin-3-yl)tetrahydro-2H-pyran-2-carboxamide] was tested, and the IC50 was 0.178 nM.

Work on `Cn1cc(C(=O)Nc2cc3cc(C4(C#N)CC45CC5)ccc3cn2)cn1` (single isomer, unassigned) [Ex-18.15, (R or S)-N-(6-(1-cyanospiro[2.2]pentan-1-yl)isoquinolin-3-yl)-1-methyl-1H-pyrazole-4-carboxamide] yielded an IC50 of 0.631 nM.

`O=C(Nc1cc2cc(C3CCN(C4COCC4O)CC3)c(Cl)cc2cn1)C1CC1` (single isomer, unassigned) [Ex-12.5, N-(7-chloro-6-(1-(4-hydroxytetrahydrofuran-3-yl)piperidin-4-yl)isoquinolin-3-yl)cyclopropanecarboxamide] gave an IC50 of 2.88 nM.

With `O=C(Nc1cc2cc(C3CCN(C4COC4)CC3)c(Cl)cc2cn1)C1(F)CC1` [Ex-7.8, N-(7-chloro-6-(1-(oxetan-3-yl)piperidin-4-yl)isoquinolin-3-yl)-1-fluorocyclopropane-1-carboxamide] the IC50 was 9.12 nM.

Molecule `CC1(N2CCC(c3cc4cc(NC(=O)C5CC56CCOCC6)ncc4cc3Cl)C(F)C2)COCC1O` (single isomer, unassigned) [Ex-14.5, N-(7-chloro-6-(3-fluoro-1-(4-hydroxy-3-methyltetrahydrofuran-3-yl)piperidin-4-yl)isoquinolin-3-yl)-6-oxaspiro[2.5]octane-1-carboxamide] has an IC50 of 1.58 nM.

`CC1(C)CC(C(=O)Nc2cc3cc(C4CCN(C5(C)COCC5O)CC4)c(Cl)cc3cn2)CO1` (stereo not shown) [Ex-2.29] was tested, and the IC50 was 0.234 nM.

Molecule `N#CC1(c2cc3cc(NC(=O)C4CC4c4ccccn4)ncc3cc2F)CC12CC2` (single isomer, unassigned) [Ex-18.13, (1R,2R or 1S,2S)-N-(6-((R or S)-1-cyanospiro[2.2]pentan-1-yl)-7-fluoroisoquinolin-3-yl)-2-(pyridin-2-yl)cyclopropane-1-carboxamide] has an IC50 of 7.41 nM.

In the case of `CC(C)(O)C1CC1C(=O)Nc1cc2cc(C3CCN(C4(C)COCC4F)CC3)c(Cl)cc2cn1` (single isomer, unassigned) [Ex-6.27, N-(7-chloro-6-(1-(4-fluoro-3-methyltetrahydrofuran-3-yl)piperidin-4-yl)isoquinolin-3-yl)-2-(2-hydroxypropan-2-yl)cyclopropane-1-carboxamide], the IC50 is reported as 112 nM.

`CC1C(C(=O)Nc2cc3cc(C4CCN(C5(C)COCC5O)CC4)c(Cl)cc3cn2)C12CCOCC2` (single isomer, unassigned) [Ex-10.5, N-(7-chloro-6-(1-(4-hydroxy-3-methyltetrahydrofuran-3-yl)piperidin-4-yl)isoquinolin-3-yl)-2-methyl-6-oxaspiro[2.5]octane-1-carboxamide] gave an IC50 of 61.7 nM.

With `CC1(C)C(C(=O)Nc2cc3cc(C4CCN(C5(C)COCC5O)CC4)c(Cl)cc3cn2)C1c1ccccn1` (single isomer, unassigned) [Ex-4.46, N-(7-chloro-6-(1-(4-hydroxy-3-methyltetrahydrofuran-3-yl)piperidin-4-yl)isoquinolin-3-yl)-2,2-dimethyl-3-(pyridin-2-yl)cyclopropane-1-carboxamide] the IC50 was 3.55 nM.

In the case of `COC1CC(C(=O)Nc2cc3cc(C4(C#N)CC45CC5)ccc3cn2)C1` (single isomer, unassigned) [Ex-1.3, (1R,3R or 1S,3S)-N-(6-((R or S)-1-cyanospiro[2.2]pentan-1-yl)isoquinolin-3-yl)-3-methoxycyclobutane-1-carboxamide], the IC50 is reported as 0.631 nM.

`O=C(Nc1cc2cc(C3CCN(C4CS(=O)(=O)C4)CC3)c(Cl)cc2cn1)C1CC1` [Ex-13.5] gave an IC50 of 4.17 nM.

`CC1(N2CCC(c3cc4cc(NC(=O)C5CC5C(F)F)ncc4cc3Cl)CC2)COCC1O` (single isomer, unassigned) [Ex-4.43, N-(7-chloro-6-(1-(4-hydroxy-3-methyltetrahydrofuran-3-yl)piperidin-4-yl)isoquinolin-3-yl)-2-(difluoromethyl)cyclopropane-1-carboxamide] gave an IC50 of 1.48 nM.

Molecule `CC1(C)COCC1(C)N1CCC(c2cc3cc(NC(=O)C4CC45CCOCC5)ncc3cc2Cl)CC1` (single isomer, unassigned) [Ex-6.19, N-(7-chloro-6-(1-(3,4,4-trimethyltetrahydrofuran-3-yl)piperidin-4-yl)isoquinolin-3-yl)-6-oxaspiro[2.5]octane-1-carboxamide] has an IC50 of 39.8 nM.

`CC(C)n1nccc1C1CC1C(=O)Nc1cc2cc(C3CCN(C4(C)COCC4O)CC3)c(Cl)cc2cn1` (single isomer, unassigned) [Ex-4.63, N-(7-chloro-6-(1-(4-hydroxy-3-methyltetrahydrofuran-3-yl)piperidin-4-yl)isoquinolin-3-yl)-2-(1-isopropyl-1H-pyrazol-5-yl)cyclopropane-1-carboxamide] gave an IC50 of 22.4 nM.
